From patent US6881747B2, “Small molecules for inhibition of function and drug delivery to leukocytes” (Science & Technology Corporation @UNM, priority 2002, dated 2005)

Target: LFA-1 (Homo sapiens, UniProt P20701)
Assay: Affinity (KD) of derivatives for LFA-1
Format: binding
Conditions: affinity for LFA-1; read-out: KD (Affinity constant)

Sequence of LFA-1 (P20701 26-1170): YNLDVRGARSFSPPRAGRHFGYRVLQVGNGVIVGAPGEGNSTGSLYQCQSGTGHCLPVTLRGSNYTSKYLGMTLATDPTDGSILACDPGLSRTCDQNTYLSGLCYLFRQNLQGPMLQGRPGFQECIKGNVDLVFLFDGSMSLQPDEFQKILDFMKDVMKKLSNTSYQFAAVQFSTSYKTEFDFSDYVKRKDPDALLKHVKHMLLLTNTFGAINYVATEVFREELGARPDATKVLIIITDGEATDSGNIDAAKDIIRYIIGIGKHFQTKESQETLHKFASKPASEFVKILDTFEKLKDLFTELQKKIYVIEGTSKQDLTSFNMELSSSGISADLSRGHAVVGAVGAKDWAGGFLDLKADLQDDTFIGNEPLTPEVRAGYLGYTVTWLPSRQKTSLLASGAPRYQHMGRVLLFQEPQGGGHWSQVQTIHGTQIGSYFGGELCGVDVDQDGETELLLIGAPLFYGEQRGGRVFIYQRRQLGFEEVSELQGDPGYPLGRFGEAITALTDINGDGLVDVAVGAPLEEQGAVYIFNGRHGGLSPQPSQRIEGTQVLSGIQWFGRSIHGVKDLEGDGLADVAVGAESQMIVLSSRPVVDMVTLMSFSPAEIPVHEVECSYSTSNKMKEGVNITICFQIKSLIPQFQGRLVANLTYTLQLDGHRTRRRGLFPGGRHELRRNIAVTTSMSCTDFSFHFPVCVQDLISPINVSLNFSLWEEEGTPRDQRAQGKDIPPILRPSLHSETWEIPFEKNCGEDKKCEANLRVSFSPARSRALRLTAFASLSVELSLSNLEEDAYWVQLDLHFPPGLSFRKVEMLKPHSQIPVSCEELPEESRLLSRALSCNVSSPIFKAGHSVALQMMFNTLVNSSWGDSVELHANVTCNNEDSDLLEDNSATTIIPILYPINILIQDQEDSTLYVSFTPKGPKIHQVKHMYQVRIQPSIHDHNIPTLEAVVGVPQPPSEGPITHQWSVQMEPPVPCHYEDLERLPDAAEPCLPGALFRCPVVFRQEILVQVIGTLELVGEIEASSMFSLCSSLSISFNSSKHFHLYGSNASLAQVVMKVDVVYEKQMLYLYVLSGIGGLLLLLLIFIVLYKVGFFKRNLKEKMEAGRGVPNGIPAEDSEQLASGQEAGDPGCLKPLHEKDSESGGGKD
Sequence of LFA-1 (P05107 23-769 partner): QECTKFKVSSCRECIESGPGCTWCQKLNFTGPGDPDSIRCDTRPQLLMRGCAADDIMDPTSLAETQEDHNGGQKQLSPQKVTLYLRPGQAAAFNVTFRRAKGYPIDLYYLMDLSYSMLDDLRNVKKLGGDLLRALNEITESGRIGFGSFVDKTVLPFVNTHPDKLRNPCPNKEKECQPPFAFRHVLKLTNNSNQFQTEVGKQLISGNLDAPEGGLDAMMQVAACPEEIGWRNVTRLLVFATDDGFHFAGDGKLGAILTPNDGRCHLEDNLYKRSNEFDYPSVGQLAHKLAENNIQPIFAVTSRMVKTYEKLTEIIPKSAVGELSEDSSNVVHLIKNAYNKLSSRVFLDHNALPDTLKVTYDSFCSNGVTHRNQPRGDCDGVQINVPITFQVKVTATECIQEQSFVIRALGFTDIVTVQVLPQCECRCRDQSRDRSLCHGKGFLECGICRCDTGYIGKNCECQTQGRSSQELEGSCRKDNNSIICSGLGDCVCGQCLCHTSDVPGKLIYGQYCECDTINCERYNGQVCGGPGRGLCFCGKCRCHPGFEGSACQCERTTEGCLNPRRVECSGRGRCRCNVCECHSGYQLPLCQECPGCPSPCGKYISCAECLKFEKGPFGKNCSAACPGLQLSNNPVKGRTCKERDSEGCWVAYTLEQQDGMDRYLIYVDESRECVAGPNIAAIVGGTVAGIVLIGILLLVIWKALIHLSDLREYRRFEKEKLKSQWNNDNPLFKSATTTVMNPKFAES

`CN1C(=O)N(c2cc(Cl)cc(Cl)c2)C(=O)[C@@H]1Cc1ccccc1` [JEB I-24] showed a Kd of 1200 nM.
“5-(4-bromobenzyl)-3-(3,5-dichlorophenyl)-5-methyl-imidazolidine-2,4-dione-1-(1-butyl-4-fluoresceincarbamide) [Fluorescein- Butylamino- Nor-BIRT]” gave a Kd of 115 nM.
Work on `O=C1N[C@H](Cc2ccccc2)C(=O)N1c1cc(Cl)cc(Cl)c1` [JEB I-19] yielded a Kd of 620 nM.
`O=C1N[C@@H](Cc2ccccc2)C(=O)N1c1cc(Cl)cc(Cl)c1` [JEB I-18] showed a Kd of 3650 nM.
With `C[C@@]1(Cc2ccc(Br)cc2)C(=O)N(c2cc(Cl)cc(Cl)c2)C(=O)N1CCCCN` [Butylamino- Nor-BIRT, 1-(4-aminobutyl)-5-(4-bromobenzyl)-3-(3,5-dichlorophenyl)-5-methyl-imidazolidine-2,4-dione] the Kd was 75 nM.
`CN1C(=O)N(c2cc(Cl)cc(Cl)c2)C(=O)[C@H]1Cc1ccccc1` [JEB I-22] was tested, and the Kd was 1230 nM.
